Common to all, as to type: cell-based
The target of assay [1] is T1, GLP-1 receptor (Homo sapiens, UniProt P43220).
T1 construct: expressed in transfected cells; host or cells: HEK293
The experiment in a line: cAMP induction, firefly luciferase reporter assay in HEK293 cells co-transfected with the GLP-1 receptor. Here is the method: (§1) The ability of each peptide to induce cAMP was measured in a firefly luciferase-based reporter assay. […] At the end of the incubation, 100 μL of LucLite luminescence substrate reagent (Perkin Elmer, Wellesley, Mass.) were added to each well. […] In some instances, the in vitro agonist activity at the GIP receptor was also tested.
A general note: Reporter assays use an easily measured gene product as a stand-in for the process of interest.

Assay [2] deals with T2, glucagon receptor (Homo sapiens, UniProt P47871).
T2 construct: expressed in transfected cells; host or cells: HEK293
T2 sequence (P47871 26-477, species assumed): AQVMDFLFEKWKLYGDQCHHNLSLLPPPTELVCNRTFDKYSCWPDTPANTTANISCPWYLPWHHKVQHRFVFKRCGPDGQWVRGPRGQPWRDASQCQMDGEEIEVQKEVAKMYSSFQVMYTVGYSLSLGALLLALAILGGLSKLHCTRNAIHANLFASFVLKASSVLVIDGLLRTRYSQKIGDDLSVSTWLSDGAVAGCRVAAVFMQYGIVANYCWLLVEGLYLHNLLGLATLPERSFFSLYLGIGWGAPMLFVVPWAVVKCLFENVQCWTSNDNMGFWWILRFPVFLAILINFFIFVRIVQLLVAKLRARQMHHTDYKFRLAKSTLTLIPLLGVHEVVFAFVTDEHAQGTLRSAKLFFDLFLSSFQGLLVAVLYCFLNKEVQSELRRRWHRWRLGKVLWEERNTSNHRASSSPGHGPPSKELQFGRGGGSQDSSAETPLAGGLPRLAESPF
The experiment in a line: cAMP induction, firefly luciferase reporter assay in HEK293 cells co-transfected with the glucagon receptor. Here is the method: as §1

The target of assay [3] is T3, GIP receptor (Homo sapiens, UniProt P48546).
T3 construct: expressed in transfected cells; host or cells: HEK293
T3 sequence (P48546 22-466): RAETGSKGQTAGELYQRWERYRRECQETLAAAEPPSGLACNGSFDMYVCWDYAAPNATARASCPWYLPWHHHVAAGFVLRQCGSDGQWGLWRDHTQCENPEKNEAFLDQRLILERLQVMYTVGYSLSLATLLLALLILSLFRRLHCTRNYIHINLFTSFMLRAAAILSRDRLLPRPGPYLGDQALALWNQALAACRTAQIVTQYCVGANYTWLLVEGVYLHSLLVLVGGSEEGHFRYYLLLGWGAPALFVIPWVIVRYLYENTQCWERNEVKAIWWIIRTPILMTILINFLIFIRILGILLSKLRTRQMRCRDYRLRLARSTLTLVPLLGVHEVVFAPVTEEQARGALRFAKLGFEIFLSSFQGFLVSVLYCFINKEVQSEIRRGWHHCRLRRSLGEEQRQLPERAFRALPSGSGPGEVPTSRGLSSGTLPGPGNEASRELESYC
The experiment in a line: in vitro agonist activity at the GIP receptor (cAMP luciferase reporter, HEK293 cells). Here is the method: It is understood that a lower EC50 indicates higher activity or potency at the receptor. […] The ability of each peptide to induce cAMP was measured in a firefly luciferase-based reporter assay. […] At the end of the incubation, 100 μL of LucLite luminescence substrate reagent (Perkin Elmer, Wellesley, Mass.) were added to each well. […] In some instances, the in vitro agonist activity at the GIP receptor was also tested.

[4] abbreviates: HEK293 cells, cAMP-responsive luciferase reporter, 5 hours incubation.
Setting [5] is: in vitro agonist activity, read-out: EC50 (nM) at GIP receptor.

Like-named read-outs stand apart in the source and are kept apart here. Numbered stars: 1 amine (or outer) side, 2 acyl side, 3 side chain; on linkers, the order of the positions; unused ones are H or OH. Square brackets hold non-standard residues; d marks the D form. Side chains are listed from the residue outwards. Peptide text beside a SMILES is read from it. * marks the point of attachment. γGlu = O=C(O)[C@H](CCC(=O)[*:2])N[*:1]; Palmitoyl = CCCCCCCCCCCCCCCC(=O)*; Orn = NCCC[C@H](N)C(=O)O; Aib = CC(C)(N)C(=O)O

T1 sequence (P43220 24-463): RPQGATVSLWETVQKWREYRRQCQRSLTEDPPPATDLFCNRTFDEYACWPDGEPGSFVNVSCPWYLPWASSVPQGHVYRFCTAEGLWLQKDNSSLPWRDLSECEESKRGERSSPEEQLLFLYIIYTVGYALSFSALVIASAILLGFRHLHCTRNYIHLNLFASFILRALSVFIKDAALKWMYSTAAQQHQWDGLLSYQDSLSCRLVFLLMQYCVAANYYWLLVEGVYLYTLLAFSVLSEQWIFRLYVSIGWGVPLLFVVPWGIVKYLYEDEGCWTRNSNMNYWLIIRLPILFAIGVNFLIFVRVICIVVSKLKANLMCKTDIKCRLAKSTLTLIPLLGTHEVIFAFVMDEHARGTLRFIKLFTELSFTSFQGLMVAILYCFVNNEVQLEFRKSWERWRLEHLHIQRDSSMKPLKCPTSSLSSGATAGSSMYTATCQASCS

Regarding `CCCCCCCCCCCCCCCC(=O)N[C@@H](CCC(=O)NCCCC[C@H](NC(=O)[C@H](CC(=O)O)NC(=O)[C@H](CO)NC(=O)[C@@H](NC(=O)[C@H](Cc1ccccc1)NC(=O)[C@@H](NC(=O)CNC(=O)[C@H](CCC(N)=O)NC(=O)C(C)(C)NC(=O)[C@@H](N)Cc1c[nH]cn1)[C@@H](C)O)[C@@H](C)O)C(=O)N[C@@H](CO)C(=O)N[C@@H](CCCCN)C(=O)N[C@@H](Cc1ccc(O)cc1)C(=O)N[C@@H](CC(C)C)C(=O)N[C@@H](CC(=O)O)C(=O)NC(C)(C)C(=O)N[C@@H](CCCNC(=N)N)C(=O)N[C@@H](C)C(=O)N[C@@H](C)C(=O)N[C@@H](CCC(N)=O)C(=O)N[C@@H](CC(=O)O)C(=O)N[C@@H](Cc1ccccc1)C(=O)N[C@H](C(=O)N[C@@H](CCC(N)=O)C(=O)N[C@@H](Cc1c[nH]c2ccccc12)C(=O)N[C@@H](CC(C)C)C(=O)N[C@@H](CC(C)C)C(=O)N[C@@H](CC(=O)O)C(=O)NCC(=O)N[C@@H](CCCNC(=N)N)C(=O)NCC(N)=O)C(C)C)C(=O)O` [compound 30] (H-H[Aib]QGTFTSDK([γGlu-Palmitoyl])SKYLD[Aib]RAAQDFVQWLLDGRG-NH2), the EC50 stood at 8.2 pM in assay [1] (setting [4]), 933 pM in assay [2] (setting [4]) and 9.06 nM in assay [3] (setting [5]).
For `CCCCCCCCCCCCCCCC(=O)N[C@@H](CCC(=O)N[C@@H](CCC(=O)NCCCC[C@H](NC(=O)[C@H](CC(=O)O)NC(=O)[C@H](CO)NC(=O)[C@@H](NC(=O)[C@H](Cc1ccccc1)NC(=O)[C@@H](NC(=O)CNC(=O)[C@H](CCC(N)=O)NC(=O)C(C)(C)NC(=O)[C@@H](N)Cc1c[nH]cn1)[C@@H](C)O)[C@@H](C)O)C(=O)N[C@@H](CO)C(=O)N[C@@H](CCCCN)C(=O)N[C@@H](Cc1ccc(O)cc1)C(=O)N[C@@H](CC(C)C)C(=O)N[C@@H](CC(=O)O)C(=O)NC(C)(C)C(=O)N[C@@H](CCCNC(=N)N)C(=O)N[C@@H](C)C(=O)N[C@@H](C)C(=O)N[C@@H](CCC(N)=O)C(=O)N[C@@H](CC(=O)O)C(=O)N[C@@H](Cc1ccccc1)C(=O)N[C@H](C(=O)N[C@@H](CCC(N)=O)C(=O)N[C@@H](Cc1c[nH]c2ccccc12)C(=O)N[C@@H](CC(C)C)C(=O)N[C@@H](CCSC)C(=O)N[C@@H](CCCCN)C(=O)NCC(=O)N[C@@H](CCCNC(=N)N)C(=O)NCC(=O)O)C(C)C)C(=O)O)C(=O)O` [compound 31] (H-H[Aib]QGTFTSDK([γGlu-γGlu-Palmitoyl])SKYLD[Aib]RAAQDFVQWLMKGRG-OH; N-terminus assumed) the same measures were 7 pM, 16 pM and 2.34 nM.
`CCCCCCCCCCCCCCCC(=O)N[C@@H](CCC(=O)N[C@@H](CCC(=O)NCCCC[C@H](NC(=O)[C@H](CC(=O)O)NC(=O)[C@H](CO)NC(=O)[C@@H](NC(=O)[C@H](Cc1ccccc1)NC(=O)[C@@H](NC(=O)CNC(=O)[C@H](CCC(N)=O)NC(=O)C(C)(C)NC(=O)[C@@H](N)Cc1c[nH]cn1)[C@@H](C)O)[C@@H](C)O)C(=O)N[C@@H](CO)C(=O)N[C@@H](CCCCN)C(=O)N[C@@H](Cc1ccc(O)cc1)C(=O)N[C@@H](CC(C)C)C(=O)N[C@@H](CC(=O)O)C(=O)NC(C)(C)C(=O)N[C@@H](CCCNC(=N)N)C(=O)N[C@@H](C)C(=O)N[C@@H](C)C(=O)N[C@@H](CCC(N)=O)C(=O)N[C@@H](CC(=O)O)C(=O)N[C@@H](Cc1ccccc1)C(=O)N[C@H](C(=O)N[C@@H](CCC(N)=O)C(=O)N[C@@H](Cc1c[nH]c2ccccc12)C(=O)N[C@@H](CC(C)C)C(=O)N[C@@H](CCSC)C(=O)N[C@@H](CC(=O)O)C(=O)N[C@H](C(=O)N[C@@H](CCCCN)C(=O)N[C@H](C)C(=O)O)[C@@H](C)O)C(C)C)C(=O)O)C(=O)O` [compound 32] (H-H[Aib]QGTFTSDK([γGlu-γGlu-Palmitoyl])SKYLD[Aib]RAAQDFVQWLMDTK[dA]-OH): the EC50 in assay [1] (setting [4]) is 8 pM; in assay [2] (setting [4]), 7 pM; in assay [3] (setting [5]), 2.08 nM.
Regarding `CCCCCCCCCCCCCCCC(=O)N[C@@H](CCC(=O)N[C@@H](CCC(=O)NCCCC[C@H](NC(=O)[C@H](CC(=O)O)NC(=O)[C@H](CO)NC(=O)[C@@H](NC(=O)[C@H](Cc1ccccc1)NC(=O)[C@@H](NC(=O)CNC(=O)[C@H](CCC(N)=O)NC(=O)C(C)(C)NC(=O)[C@@H](N)Cc1c[nH]cn1)[C@@H](C)O)[C@@H](C)O)C(=O)N[C@@H](CO)C(=O)N[C@@H](CCCCN)C(=O)N[C@@H](Cc1ccc(O)cc1)C(=O)N[C@@H](CC(C)C)C(=O)N[C@@H](CC(=O)O)C(=O)NC(C)(C)C(=O)N[C@@H](CCCNC(=N)N)C(=O)N[C@@H](C)C(=O)N[C@@H](C)C(=O)N[C@@H](CCC(N)=O)C(=O)N[C@@H](CC(=O)O)C(=O)N[C@@H](Cc1ccccc1)C(=O)N[C@H](C(=O)N[C@@H](CCC(N)=O)C(=O)N[C@@H](Cc1c[nH]c2ccccc12)C(=O)N[C@@H](CC(C)C)C(=O)N[C@@H](CCSC)C(=O)N[C@@H](CCCN)C(=O)N[C@H](C(=O)N[C@@H](CCCN)C(=O)N[C@@H](CCC(=O)O)C(=O)O)[C@@H](C)O)C(C)C)C(=O)O)C(=O)O` [compound 33] (H-H[Aib]QGTFTSDK([γGlu-γGlu-Palmitoyl])SKYLD[Aib]RAAQDFVQWLM[Orn]T[Orn]E-OH; N-terminus assumed), the half-maximal effective concentration (EC50) in assay [1] (setting [4]) was 19 pM; in assay [2] (setting [4]) it was 23 pM; in assay [3] (setting [5]) it was 3.96 nM.
For `CCCCCCCCCCCCCCCC(=O)N[C@@H](CCC(=O)NCCCC[C@H](NC(=O)[C@H](CC(=O)O)NC(=O)[C@H](CO)NC(=O)[C@@H](NC(=O)[C@H](Cc1ccccc1)NC(=O)[C@@H](NC(=O)CNC(=O)[C@H](CCC(N)=O)NC(=O)C(C)(C)NC(=O)[C@@H](N)Cc1c[nH]cn1)[C@@H](C)O)[C@@H](C)O)C(=O)N[C@@H](CO)C(=O)N[C@@H](CCCCN)C(=O)N[C@@H](Cc1ccc(O)cc1)C(=O)N[C@@H](CC(C)C)C(=O)N[C@@H](CC(=O)O)C(=O)NC(C)(C)C(=O)N[C@@H](CCCNC(=N)N)C(=O)N[C@@H](C)C(=O)N[C@@H](C)C(=O)N[C@@H](CCC(N)=O)C(=O)N[C@@H](CC(=O)O)C(=O)N[C@@H](Cc1ccccc1)C(=O)N[C@H](C(=O)N[C@@H](CCC(N)=O)C(=O)N[C@@H](Cc1c[nH]c2ccccc12)C(=O)N[C@@H](CC(C)C)C(=O)N[C@@H](CCCCN)C(=O)N[C@@H](CC(=O)O)C(=O)NCC(=O)N[C@@H](CCCNC(=N)N)C(=O)NCC(N)=O)C(C)C)C(=O)O` [compound 36] (H-H[Aib]QGTFTSDK([γGlu-Palmitoyl])SKYLD[Aib]RAAQDFVQWLKDGRG-NH2) the same measures were 3 pM, 28 pM and 0.47 nM.
As for `CCCCCCCCCCCCCCCC(=O)N[C@@H](CCC(=O)N[C@@H](CCC(=O)NCCCC[C@H](NC(=O)[C@H](CC(=O)O)NC(=O)[C@H](CO)NC(=O)[C@@H](NC(=O)[C@H](Cc1ccccc1)NC(=O)[C@@H](NC(=O)CNC(=O)[C@H](CCC(N)=O)NC(=O)C(C)(C)NC(=O)[C@@H](N)Cc1c[nH]cn1)[C@@H](C)O)[C@@H](C)O)C(=O)N[C@@H](CO)C(=O)N[C@@H](CCCCN)C(=O)N[C@@H](Cc1ccc(O)cc1)C(=O)N[C@@H](CC(C)C)C(=O)N[C@@H](CC(=O)O)C(=O)NC(C)(C)C(=O)N[C@@H](CCCNC(=N)N)C(=O)N[C@@H](C)C(=O)N[C@@H](C)C(=O)N[C@@H](CCC(N)=O)C(=O)N[C@@H](CC(=O)O)C(=O)N[C@@H](Cc1ccccc1)C(=O)N[C@H](C(=O)N[C@@H](CCC(N)=O)C(=O)N[C@@H](Cc1c[nH]c2ccccc12)C(=O)N[C@@H](CC(C)C)C(=O)N[C@@H](CCSC)C(=O)N[C@@H](CCCCN)C(=O)N[C@H](C(=O)N[C@@H](CCCCN)C(=O)N[C@H](CCC(=O)O)C(=O)O)[C@@H](C)O)C(C)C)C(=O)O)C(=O)O` [compound 37] (H-H[Aib]QGTFTSDK([γGlu-γGlu-Palmitoyl])SKYLD[Aib]RAAQDFVQWLMKTK[dE]-OH; N-terminus assumed), the concentration for a half-maximal effect (EC50) is 16 pM in assay [1] (setting [4]), 18 pM in assay [2] (setting [4]) and 3.3 nM in assay [3] (setting [5]).
`CCCCCCCCCCCCCCCC(=O)N[C@@H](CCC(=O)NCCCC[C@H](NC(=O)[C@H](CC(=O)O)NC(=O)[C@H](CO)NC(=O)[C@@H](NC(=O)[C@H](Cc1ccccc1)NC(=O)[C@@H](NC(=O)CNC(=O)[C@H](CCC(N)=O)NC(=O)[C@@H](C)NC(=O)[C@@H](N)Cc1cnc[nH]1)[C@@H](C)O)[C@@H](C)O)C(=O)N[C@@H](CO)C(=O)N[C@@H](CCCCN)C(=O)N[C@@H](Cc1ccc(O)cc1)C(=O)N[C@@H](CC(C)C)C(=O)N[C@@H](CC(=O)O)C(=O)N[C@@H](CCC(=O)O)C(=O)N[C@@H](CCCNC(=N)N)C(=O)N[C@@H](C)C(=O)N[C@@H](C)C(=O)N[C@@H](CCC(N)=O)C(=O)N[C@@H](CC(=O)O)C(=O)N[C@@H](Cc1ccccc1)C(=O)N[C@H](C(=O)N[C@@H](CCC(N)=O)C(=O)N[C@@H](Cc1c[nH]c2ccccc12)C(=O)N[C@@H](CC(C)C)C(=O)N[C@@H](CC(C)C)C(=O)N[C@@H](CC(=O)O)C(=O)N[C@H](C(N)=O)[C@@H](C)O)C(C)C)C(=O)O` [compound 56]: the EC50 was found to be 20 pM in assay [1], 6 pM in assay [2] and 1.64 nM in assay [3].

The EC50 is the concentration at which the effect is half-maximal.

These data come from patent US8729017B2 (priority 2011, dated 2014).
